One block for each compound: values may come before it.
Columns and labels:
[1] = Cytotoxicity against human CCD-986Sk cells assessed as cell viability by MTT assay relative to control; type: toxicity, cell-based; settings: read-out: Activity
Interstitial collagenase = target: T1, Interstitial collagenase (Homo sapiens, UniProt P03956); experiment: Inhibition of MMP-1 (unknown origin)
T1 sequence (P03956 whole entry): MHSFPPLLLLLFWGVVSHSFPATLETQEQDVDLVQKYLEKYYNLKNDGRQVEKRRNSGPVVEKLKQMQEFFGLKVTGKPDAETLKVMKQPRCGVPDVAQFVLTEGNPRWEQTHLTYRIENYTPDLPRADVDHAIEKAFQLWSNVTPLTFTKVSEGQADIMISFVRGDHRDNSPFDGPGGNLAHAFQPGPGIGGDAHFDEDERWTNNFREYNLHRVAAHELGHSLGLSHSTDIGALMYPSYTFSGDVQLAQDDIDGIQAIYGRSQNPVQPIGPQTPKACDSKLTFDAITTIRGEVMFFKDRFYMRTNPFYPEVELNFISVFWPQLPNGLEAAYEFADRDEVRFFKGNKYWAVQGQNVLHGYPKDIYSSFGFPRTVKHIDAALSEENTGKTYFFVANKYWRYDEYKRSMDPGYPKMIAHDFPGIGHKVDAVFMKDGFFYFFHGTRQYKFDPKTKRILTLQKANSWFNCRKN

[2] = Inhibition of UVB-induced MMP-9 expression in SKH-1 hairless mouse skin at 1 nM administered topically for 1 hr followed by UVB irradiation for 15 weeks by densitometry based gelatin zymography analysis relative to control; type: functional; settings: SKH-1, Skin of body, light or radiation study, topical, time 2521 hrs
[3] = Inhibition of UVB-induced MMP-9 expression in SKH-1 hairless mouse skin at 5 nM administered topically for 1 hr followed by UVB irradiation for 15 weeks by densitometry based gelatin zymography analysis relative to control; type: functional; settings: SKH-1, Skin of body, light or radiation study, topical, time 2521 hrs
Stromelysin-2 = Stromelysin-2 (Homo sapiens, UniProt P09238); experiment: Inhibition of MMP-10 (unknown origin) using 5-FAM-Pro-Leu-OH as substrate by fluorimetric assay
[4] = Inhibition of MMP-1 mRNA expression in UVB-irradiated human Hs68 cells at 10 uM relative to control; type: functional; settings: Hs68, light or radiation study
[5] = Inhibition of MMP-2 mRNA expression in UVB-irradiated human Hs68 cells at 10 uM relative to control; type: functional; settings: Hs68, light or radiation study
[6] = target: T2, 72 kDa type IV collagenase (Homo sapiens, UniProt P08253); experiment: Inhibition of human MMP-2 using 7-methoxycoumarin-4-yl)acetyl-Pro-Leu-Gly-Leu-(N3-(2,4-dinitrophenyl)-L-2,3-diaminopropionyl)-Ala-Arg-NH2 as substrate preincubated for 5 mins followed by enzyme addition and measured after 15 mins by fluorescence based analysis
[7] = target: Macrophage metalloelastase (Homo sapiens, UniProt P39900); experiment: Inhibition of human MMP-12 using 7-methoxycoumarin-4-yl)acetyl-Pro-Leu-Gly-Leu-(N3-(2,4-dinitrophenyl)-L-2,3-diaminopropionyl)-Ala-Arg-NH2 as substrate preincubated for 5 mins followed by enzyme addition and measured after 15 mins by fluorescence based analysis
[8] = target: Matrix metalloproteinase-9 (Homo sapiens, UniProt P14780); experiment: Inhibition of human MMP-9 using 7-methoxycoumarin-4-yl)acetyl-Pro-Leu-Gly-Leu-(N3-(2,4-dinitrophenyl)-L-2,3-diaminopropionyl)-Ala-Arg-NH2 as substrate preincubated for 5 mins followed by enzyme addition and measured after 15 mins by fluorescence based analysis
[9] = target: T2, 72 kDa type IV collagenase; experiment: Inhibition of recombinant MMP-2 (unknown origin)
[10] = Inhibition of UV light -induced MMP-1 expression in HDF-N cells at 1 ppm by ELISA relative to control; type: functional; settings: Homo sapiens
[11] = Inhibition of UV light-induced MMP-1 expression in HDF-N cells at 10 ppm by ELISA relative to control; type: functional; settings: Homo sapiens
[12] = Inhibition of UV light-induced MMP-1 expression in HDF-N cells at 5 ppm by ELISA relative to control; type: functional; settings: Homo sapiens
[13] = Downregulation of UVB irradiation-induced MMP-3 expression in HDF cells at 20 uM measured after 24 hrs by Western blot analysis relative to control; type: functional, Homo sapiens, NHDF
[14] = Downregulation of UVB irradiation-induced MMP-1 expression in HDF cells at 20 uM measured after 24 hrs by Western blot analysis relative to control; type: functional, Homo sapiens, NHDF

T2 sequence (P08253 whole entry): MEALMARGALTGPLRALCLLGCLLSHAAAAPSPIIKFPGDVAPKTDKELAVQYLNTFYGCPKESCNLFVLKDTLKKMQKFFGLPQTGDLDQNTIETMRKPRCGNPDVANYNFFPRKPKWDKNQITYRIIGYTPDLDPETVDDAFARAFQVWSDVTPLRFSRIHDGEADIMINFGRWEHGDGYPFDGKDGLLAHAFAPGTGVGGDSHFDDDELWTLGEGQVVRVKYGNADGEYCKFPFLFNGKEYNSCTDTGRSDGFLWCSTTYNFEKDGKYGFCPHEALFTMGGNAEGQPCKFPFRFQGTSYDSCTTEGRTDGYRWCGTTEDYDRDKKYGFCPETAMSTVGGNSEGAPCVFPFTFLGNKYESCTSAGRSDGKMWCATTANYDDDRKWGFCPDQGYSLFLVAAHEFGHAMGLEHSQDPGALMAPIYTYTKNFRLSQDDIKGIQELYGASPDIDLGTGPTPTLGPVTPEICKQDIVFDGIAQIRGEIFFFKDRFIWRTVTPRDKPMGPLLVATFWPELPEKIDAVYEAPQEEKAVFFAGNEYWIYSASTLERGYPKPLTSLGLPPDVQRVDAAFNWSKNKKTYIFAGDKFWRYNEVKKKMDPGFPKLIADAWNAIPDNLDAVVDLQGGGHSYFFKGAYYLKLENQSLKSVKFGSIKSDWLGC
Sequence of Stromelysin-2 (P09238 whole entry): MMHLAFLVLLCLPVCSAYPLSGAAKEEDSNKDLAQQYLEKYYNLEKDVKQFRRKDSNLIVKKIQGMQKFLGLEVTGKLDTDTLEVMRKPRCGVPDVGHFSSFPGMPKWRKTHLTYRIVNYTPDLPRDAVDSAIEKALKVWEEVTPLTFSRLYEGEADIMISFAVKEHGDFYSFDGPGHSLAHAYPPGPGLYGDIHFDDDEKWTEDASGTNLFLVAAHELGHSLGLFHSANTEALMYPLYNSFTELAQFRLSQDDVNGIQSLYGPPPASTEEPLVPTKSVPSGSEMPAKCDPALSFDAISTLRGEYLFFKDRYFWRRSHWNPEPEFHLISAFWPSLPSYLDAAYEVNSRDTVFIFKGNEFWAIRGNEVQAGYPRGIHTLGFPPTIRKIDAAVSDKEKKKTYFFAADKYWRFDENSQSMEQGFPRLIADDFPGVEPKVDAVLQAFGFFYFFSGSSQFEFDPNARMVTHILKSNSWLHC
Sequence of Matrix metalloproteinase-9 (P14780 whole entry): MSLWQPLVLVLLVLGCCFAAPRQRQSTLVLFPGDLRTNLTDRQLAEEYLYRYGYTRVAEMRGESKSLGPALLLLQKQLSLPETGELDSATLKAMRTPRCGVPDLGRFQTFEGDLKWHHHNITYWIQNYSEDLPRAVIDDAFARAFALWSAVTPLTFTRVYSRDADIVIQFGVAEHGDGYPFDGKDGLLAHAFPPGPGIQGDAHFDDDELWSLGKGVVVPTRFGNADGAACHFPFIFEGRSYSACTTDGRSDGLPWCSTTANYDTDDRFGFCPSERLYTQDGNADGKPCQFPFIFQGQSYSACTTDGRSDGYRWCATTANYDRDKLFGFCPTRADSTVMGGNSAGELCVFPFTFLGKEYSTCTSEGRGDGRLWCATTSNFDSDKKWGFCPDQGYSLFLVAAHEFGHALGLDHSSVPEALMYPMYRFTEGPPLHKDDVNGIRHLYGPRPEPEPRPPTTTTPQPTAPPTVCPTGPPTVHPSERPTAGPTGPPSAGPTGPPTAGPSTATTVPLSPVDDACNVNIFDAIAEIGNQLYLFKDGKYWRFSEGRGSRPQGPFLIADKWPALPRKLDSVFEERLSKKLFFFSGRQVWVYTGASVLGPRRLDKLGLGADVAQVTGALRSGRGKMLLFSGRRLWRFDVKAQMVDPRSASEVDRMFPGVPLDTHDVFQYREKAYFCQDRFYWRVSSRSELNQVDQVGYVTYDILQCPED
Sequence of Macrophage metalloelastase (P39900 whole entry): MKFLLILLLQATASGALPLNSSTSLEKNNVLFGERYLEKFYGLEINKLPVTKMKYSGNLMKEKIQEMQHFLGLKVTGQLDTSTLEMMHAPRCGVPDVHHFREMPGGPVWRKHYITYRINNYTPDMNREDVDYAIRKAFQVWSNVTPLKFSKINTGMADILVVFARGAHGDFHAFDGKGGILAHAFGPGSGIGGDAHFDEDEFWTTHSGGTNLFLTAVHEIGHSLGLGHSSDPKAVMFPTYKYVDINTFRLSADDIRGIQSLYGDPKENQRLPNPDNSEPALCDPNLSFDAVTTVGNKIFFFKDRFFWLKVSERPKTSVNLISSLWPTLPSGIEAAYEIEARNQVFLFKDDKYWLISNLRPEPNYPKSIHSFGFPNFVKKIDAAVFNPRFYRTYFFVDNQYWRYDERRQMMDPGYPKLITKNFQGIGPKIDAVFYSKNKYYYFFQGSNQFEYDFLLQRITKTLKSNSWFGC

IC50 (Stromelysin-2): 0.053 µM
SMILES: COc1ccc(/C=N/Nc2nc(C)cc(=O)[nH]2)cc1

IC50 [6]: 0.00065 µM | IC50 [7]: 0.0035 µM | IC50 [8]: 0.0008 µM
SMILES: C[C@H](C[C@H](CO)NC(=O)c1ccc(Oc2ccccc2)cc1)C(=O)NO

IC50 (Interstitial collagenase): 9.75 µM
SMILES: O=C1OC[C@H]2OC(O)[C@@H]3OC(=O)c4cc(O)c(O)c(O)c4-c4c(cc(O)c(O)c4O)C(=O)O[C@@H]3[C@@H]2OC(=O)c2cc(O)c(O)c(O)c2-c2c1cc(O)c(O)c2O (some centres not stated)

IC50 [6]: 0.0011 µM | IC50 [7]: 0.0026 µM | IC50 [8]: 0.0028 µM
SMILES: C[C@H](C[C@H](COC(=O)CCC(=O)O)NC(=O)c1ccc(Oc2ccccc2)cc1)C(=O)NO

IC50 (Stromelysin-2): 1.63 µM
SMILES: CC(=O)N1c2nc(=O)cc(C)n2C(c2ccc(Br)cc2)N1C(C)=O (configuration not stated)

IC50 [9]: 0.07 µM
SMILES: COc1ccc(S(=O)(=O)N(CC(=O)NO)CC(C)C)cc1

IC50 (Stromelysin-2): 0.024 µM
SMILES: CC(=O)N1C2NC(C)=CC(=O)N2C(c2ccc(Br)cc2)N1C(C)=O (configuration not stated)

Second part, the compound before the results:

SMILES: COc1cc(/C=C/C(=O)O)ccc1O [FERULATE]
viability [1]: > 80%

SMILES: O=C(O[C@@H]1Cc2c(O)cc(O)cc2O[C@@H]1c1cc(O)c(O)c(O)c1)c1cc(O)c(O)c(O)c1 [EPIGALOCATECHIN GALLATE]
IC50 (Interstitial collagenase): 7.9 µM

SMILES: O=c1c(O)c(-c2cc(O)c(O)c(O)c2)oc2cc(O)cc(O)c12 [MYRICETIN]
inhibition in vivo at 0.001 µM [2]: 55% | inhibition in vivo at 0.005 µM [3]: 80%

SMILES: COc1cc2ccnc3c2c(c1OC)NC=C3 [AAPTAMINE]
inhibition at 10 µM [4]: 53.6% | inhibition at 10 µM [5]: 87.4%

SMILES: O=C1c2cc(O)cc(O)c2CN1c1ccc(O)cc1
inhibition at 1 µg/mL [10]: 33.9% | inhibition at 10 µg/mL [11]: 27.5% | inhibition at 5 µg/mL [12]: 27.6%

SMILES: Oc1ccc2c(c1)OC[C@]1(O)Cc3cc(O)c(O)cc3[C@H]21 [BRAZILIN]
Activity [13]: 50% | Activity [14]: 50%

Reference: ChEMBL document CHEMBL5512611, “Discovery of matrix metalloproteinase inhibitors as anti-skin photoaging agents” (Eur J Med Chem, 2024)
